According to patent US20250127787A1, “METHODS FOR TREATING PERIPHERAL NEUROPATHY” (University of Pittsburgh - Of the Commonwealth System of …, priority 2021, published 2025):
“Also recorded” adds a separate entry of the source. Read-outs that look alike come from different tables or passages of the source.

How the values were obtained:
[1] = Pharmacokinetics of 8-aminoguanine: plasma disposition; format: in vivo; conditions: single bolus 5 mg/kg through the jugular catheter; for half-life: Sprague-Dawley, rat, plasma, intravenous, 5 mg/kg
Method: Rats were anesthetized with urethane (Sigma-Aldrich, St. Louis, MO) at 1.2 g/kg. A continuous infusion of 0.9% sterile saline at 25 ul/min was established via a catheter inserted into the jugular vein. A second catheter to the carotid artery was established in order to collect blood samples (200 μl) which were drawn into a 1 ml syringe prefilled with 50 U heparin. Blood samples were centrifuged at 1300 g for 10 minutes and supernatant (plasma) was then quickly frozen on dry ice and stored at −80° C. until assay. Urine samples were collected by a urethral catheter, centrifuged at 416 g for 10 minutes to remove sediment, and stored as above. Baseline blood samples and urine samples were collected followed by a single bolus of 8-aminoguanine (8-AG, 5 mg/kg) administered through the jugular catheter. Blood samples were collected after 15, 30, 60, 120 and 240 minutes. Urine samples were collected at 1, 2, 4 and 6 hours.
Purines in urine were measured by mass spectrometry using multiple reaction monitoring. Blood samples were diluted 1 to 30 with water, and heavy isotope internal standards were added to each sample. Purines were separated by reversed-phase ultra-performance liquid chromatography (Waters UPLC BEH C18 column, 1.7 μm beads; 2.1×150 mm; Milford, MA) and quantified by multiple reaction monitoring using a triple quadrupole mass spectrometer (TSQ Quantum-Ultra; ThermoFisher Scientific, San Jose, CA) with a heated electrospray ionization source. The mobile phase was a linear gradient flow rate (300 uL/min) of 1% acetic acid in water (pH, 3; mobile phase A) and 100% methanol (mobile phase B), and was delivered with a Waters Acquity ultra-performance liquid chromatographic system. The gradient (A/B) settings were: from 0 to 2 minutes, 99.6%/0.4%; from 2 to 3 minutes, to 98.0%/2.0%; from 3 to 4 minutes, to 85.0%/15.0%; from 4 to 6.5 minutes, to 99.6%/0.4%. […]

[2] = system: glutathione peroxidase (GPx); experiment: Glutathione peroxidase activity in CYP-CIPN rat tissues; format: in vivo; conditions: 8-AG 5 mg/kg/day in drinking water
Method: Animals. This study employed female Harlan Sprague Dawley (HSD) rats (3-4 mo; Envigo, Indianapolis, IN) and were divided into the following groups: 1) Control, 2) Cyclophosphamide (CYP, 75 mg/kg i.p. in saline vehicle; administered on days 0, 3 and 6); 3) 8-aminoguanine (8-AG; 5 mg/kg/day in drinking water; beginning 2 weeks prior to CYP and continuing until sacrifice (day 8)). The dose of 8-AG is based on our preliminary and published experiments. […] The investigation conforms to the Guide for the Care and Use of Laboratory Animals published by the US National Institutes of Health (NIH Publication No. 85-23, revised 1996). […]
Western immunoblotting: Following the testing paradigms, rats were deeply anesthetized and tissues (e.g., epidermis, peripheral sciatic nerves, spinal cord segments (L3-L5) and dorsal root ganglia (L3-L5) were removed, and a portion of each preparation was homogenized using Lysing Matrix D in a FASTPREP® 24 instrument (MP Biomedicals, Solon, OH) in HBSS [5 mM KCl, 0.3 mM KH2PO4, 138 mM NaCl, 4 mM NaHO3, 0.3 mM Na2HCO3, 0.3 mM Na2HPO4, 5.6 mM glucose and 10 mM Hepes, pH 7.4 containing complete protease inhibitor cocktail (1 tablet/10 ml, Roche, Indianapolis, IN)] and phosphatase inhibitor cocktail (Sigma, 1:100). […] The protein concentrations of the supernatants were determined using the Pierce BCA protein assay (Thermo Scientific, Rockford, IL). […]

Nc1nc2[nH]c(N)nc2c(=O)[nH]1 [8-AG, 8-Aminoguanine]
half-life ([1]; read-out: half-life of first phase of decay (distribution from plasma into tissues) (converted)): 0.38 h | half-life ([1]; read-out: half-life of second phase (elimination from the body) (converted)): 37 h | plasma disposition ([1]; rat plasma): bi-exponential decay | effect on CYP-induced increase in GPx activity ([2]; epidermis): significantly decreased; also recorded: restored values to that of a control state | effect on CYP-induced increase in GPx activity ([2]; peripheral (sciatic) nerves): normalized; also recorded: prevented
